Data reported in patent publication US20070265289A1, “2-Aminopyrimidine Derivative” (priority 2004, published 2007).
pIC50: −log10 of the molar value.

Key:
rat IKK2 = target: T1, rat IKK2 (Rattus norvegicus, UniProt Q9QY78); experiment: Evaluation of rat IKK2 enzyme inhibition; type: biochemical; details: 0.5 μM ATP, probit analysis; read-out: IC50, rat IKK2 enzyme activity-inhibitory effect
T1 construct: ORF of rat IKK2 (GenBank AF115282) was cloned from a rat pancreas cDNA library; FLAG; made in house; host or cells: Sf9 insect cells
T1 sequence (Q9QY78 1-757): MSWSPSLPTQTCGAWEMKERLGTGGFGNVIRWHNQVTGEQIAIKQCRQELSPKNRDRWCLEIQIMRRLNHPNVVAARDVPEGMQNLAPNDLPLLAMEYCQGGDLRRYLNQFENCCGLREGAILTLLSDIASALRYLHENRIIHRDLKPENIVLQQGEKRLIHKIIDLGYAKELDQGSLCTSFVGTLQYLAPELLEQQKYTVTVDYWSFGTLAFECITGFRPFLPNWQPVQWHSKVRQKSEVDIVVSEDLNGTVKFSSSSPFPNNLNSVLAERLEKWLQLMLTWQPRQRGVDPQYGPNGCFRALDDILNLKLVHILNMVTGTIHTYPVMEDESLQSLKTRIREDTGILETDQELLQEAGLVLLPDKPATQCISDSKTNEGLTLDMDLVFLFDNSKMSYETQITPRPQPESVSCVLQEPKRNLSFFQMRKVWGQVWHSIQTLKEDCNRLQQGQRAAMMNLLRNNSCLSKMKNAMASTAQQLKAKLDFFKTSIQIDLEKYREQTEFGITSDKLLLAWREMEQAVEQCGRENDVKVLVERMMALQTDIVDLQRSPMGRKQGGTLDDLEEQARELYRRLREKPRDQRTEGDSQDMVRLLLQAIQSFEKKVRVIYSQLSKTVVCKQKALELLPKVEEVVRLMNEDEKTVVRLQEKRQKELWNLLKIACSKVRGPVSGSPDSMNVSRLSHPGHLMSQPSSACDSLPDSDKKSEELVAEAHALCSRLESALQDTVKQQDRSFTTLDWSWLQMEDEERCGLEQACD
Description: (1) Evaluation of Rat IKK2 Enzyme Inhibition:
ORF of rat IKK2 (GenBank AF115282) was cloned from a rat pancreas cDNA library, and with a FLAG-tag attached thereto, it was expressed in an Sf9 cell line. The cells were dissolved in a cytolytic solution (50 mM Tris-HCl pH 7.5, 0.15M NaCl, 1% NP-40, 10% glycerol, 1 mM EDTA, 1 mM EGTA pH 7.5, 1 mM Na3VO4, 5 mM p-nitrophenylphosphate, 10 mM O-glycerophosphate, 1 mM DTT, 1 mM PMSF, 10 μg/ml leupeptin, 10 μg/ml aprotinin (by Sigma)) to prepare a large amount of an cell extract, which was then purified on an anti-FLAG M2 antibody (by Sigma). This experimental operation was carried out in accordance with gene manipulation experiment manuals such as known methods (Sambrook, J. et al, Molecular Cloning-A Laboratory Manual, Cold Spring Harbor laboratory, NY, 1989) or the instructions attached to the reagents. The purified rat IKK2 was stored in an enzyme preservative (20 mM Tris-HCl pH 7.5, 10% glycerol, 12.5 mM β-glycerophosphate, 0.5 mM EDTA, 0.5 mM EGTA, 0.05% Brij35, 1 mM DTT, 1 mM PMSF (by Sigma)) at −80° C.
The purified rat IKK2, 1× enzymatic reaction buffer (20 mM Tris-HCl pH 7.5, 12.5 mM O-glycerophosphate, 20 mM MgCl2, 0.1 mM DTT), 0.01% BSA (by Sigma), 0.5 μM ATP, 0.2 μM biotinated substrate peptide (18th to 49th amino acid residues of rat I-kappa B alpha (GenBank Q63746)) and a test compound dissolved in DMSO were added to a 384-well plate (catalogue No. 3677, by Corning) to be 10 μl in total therein, and left at room temperature for 90 minutes. Next, […] of a reaction stopper (100 mM Hepse pH 8, 0.01% BSA, 0.8 M KF, 50 mM EDTA pH 8, 1% Triton X-100, europium cryptate-labeled anti-phosphorylation I-kappa B alpha-antibody (by Santa Cru), streptoavidin-labeled XL665 (by Nihon Schering)) was added thereto, kept warmed for 30 minutes, and then assayed with DISCOVERY (by Perkin-Elmer). The rat IKK2 enzyme activity-inhibitory effect of the tested compound was obtained according to the following formula. Every dose was tested independently three times. Inhibition (%) by Test Compound=((mean value with rat IKK2 but not with test compound)−(mean value with both test compound and rat IKK2))/((mean value with rat IKK2 but not with test compound)−(mean value not with rat IKK2))×100.

[1] = test system: collagen-induced rheumatoid arthritis; experiment: Rat collagen-induced rheumatoid arthritis model; type: in vivo; details: oral administration at a dose of 30 mg/kg, 14 days
Description: (4) Collagen-Induced Rheumatoid Arthritis Model:
The effect to rat collagen-induced rheumatoid arthritis was evaluated according to a partial modification of the method described in The Japanese Journal of Pharmacology, 1997 August; 74(4): 313-22.
10 mL of a 1 mg/mL solution of bovine-derived type 2 collagen (by Cosmobio) diluted three-fold with acetic acid was mixed with adjuvant incomplete Freund (by Difco) in 1/1, and emulsified to give an emulsion for sensitization. The tail root of each rat in a control group and in a test compound administration group was disinfected with ethanol, and collagen-sensitized through intradermal injection of 0.4 mL of the emulsion containing […] of collagen thereinto to thereby induce rheumatoid arthritis. The rats in the non-sensitized group were not treated for collagen sensitization. To the rats of the control group, 10 mL/kg of 0.5% methyl cellulose was orally administered. To the rats of the test compound administration group, a compound of the invention was orally administered. One week after the sensitization, the administration continued for 14 days. The degree of inflammation was judged by measuring the rheumatoid arthritis scores of the four limbs of each rat (scoring). Briefly, the symptom of each articulation was visually grouped into the following four ranks (0: normal, 1: flare or light swelling, 2: middle swelling, 3: heavy swelling or joint ankylosis); and the total of the numerical data of the four limbs is referred to as the rheumatoid arthritis score. The scoring was carried out every other day after the development of rheumatoid arthritis. The cumulative rheumatoid arthritis score was calculated by totaling the rheumatoid arthritis scores on every scoring date of every individual. Relative to the mean cumulative rheumatoid arthritis score of rats of the control group, the inhibition by the those of the test compound administration group was calculated, and the mean value of the data was shown.

TNF-α production = experiment: Mouse LPS-induced TNF-α production model; type: in vivo, Balb/c female mice; details: Mus musculus, po, 1.5 h, oral administration of 30 mg/kg, 60 minutes before LPS, blood 90 minutes after LPS; read-out: inhibition of plasma TNF-α
Description: (2) Mouse LPS-Induced TNF-α Production Model:
6 weeks old Balb/c female mice were placed into two groups, a control group and a test compound administration group. A solution containing 10 μg/mouse of LPS in 0.9% physiological salt was administered by intraperitoneal injection into the control mice. 60 minutes before the LPS administration, a compound of the invention was orally administered to the mice of the test compound administration group. Under anesthesia with diethyl ether, blood was collected from the posterior venous cavity of the mice of both the test compound administration group and the control group at 90 minutes after the LPS administration, and treated with heparin, and the plasma was separated from it through centrifugation at 10000 rpm at 4° C. for 10 minutes, and then diluted two-fold with PBS (pH 7.4).
The TNF-α concentration in the sample was determined with an ELISA kit (by Pharmingen, San Diego, Calif.). The inhibition by the mice of the test compound administration group relative to the mean inhibition by those of the control group was calculated as a mean value thereof.
The inhibition in oral administration of 30 mg/kg of compound (I) is shown below.

pIC50 (rat IKK2) | Compound | inhibition of cumulative rheumatoid arthritis score [1] [%] | inhibition in vivo at 30 mg/kg (TNF-α production) [%]
≥ 6.30 | Nc1nc(-c2c(O)cccc2OCC2CC2)cc(C2CCCNC2)n1 (stereo not shown) [Example 37] | ~100 | –
≥ 6.30 | Nc1nc(-c2c(O)cccc2OCC2CCC2)cc(C2CCCNC2)n1 (stereo not shown) [Example 85] | ~100 | 85
≥ 6.30 | Nc1nc(-c2c(O)cccc2OCC2CCCC2)cc(C2CCCNC2)n1 (stereo not shown) [Example 92] | ~100 | –
